Source: the supplement of paper PMC10627819

Columns and labels:
Test in all cases: fitness (endpoint OD595 vs no drug) (fraction); higher = more growth
B. subtilis 168 = system: B. subtilis 168
Summary of the method: (§1)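 Bacterial growth was followed in 384-well plates seeded at OD595 0.01, with 30 µl per well, or 55 µl for S. pneumoniae, in TSB, LB Lennox or CY at 37 °C. OD595 was read every 30 min for 14 h, and each reading had the first reading subtracted as background. Fitness is the background-corrected optical density at entry into stationary phase divided by the robust mean of the no-drug control wells. This ratio is capped at 1.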

S. pneumoniae D39V = system: S. pneumoniae D39V
Summary of the method: as §1

S. aureus Newman = details: one replicate
Summary of the method: as §1

O=C(O)[C@H]1/C(=C/CO)O[C@@H]2CC(=O)N21 [Clavulanic acid] + Cc1ncc([N+](=O)[O-])n1CCO [Metronidazole]
fitness
Details	partner 0.625 µg/mL	partner 1.073 µg/mL	partner 1.25 µg/mL	partner 2.145 µg/mL	partner 2.5 µg/mL	partner 4.29 µg/mL	partner 5 µg/mL
B. subtilis 168, first compound 1.5 µg/mL	0.93	–	0.97	–	0.976	–	–
B. subtilis 168, first compound 3 µg/mL	0.909	–	0.89	–	0.886	–	–
B. subtilis 168, first compound 6 µg/mL	0.794	–	0.762	–	0.772	–	–
S. aureus Newman, first compound 0.03125 µg/mL	0.976	–	0.96	–	0.996	–	–
S. aureus Newman, first compound 0.0625 µg/mL	0.94	–	≥ 1	–	≥ 1	–	–
S. aureus Newman, first compound 0.125 µg/mL	0.85	–	0.891	–	0.852	–	–
S. pneumoniae D39V, first compound 0.5 µg/mL	–	0.946	≥ 1	0.946	≥ 1	0.858	≥ 1
S. pneumoniae D39V, first compound 1 µg/mL	–	0.931	0.957	0.926	0.971	0.89	0.959
S. pneumoniae D39V, first compound 2 µg/mL	–	0.839	0.801	0.779	0.828	0.829	0.805

O=C(O)[C@H]1/C(=C/CO)O[C@@H]2CC(=O)N21 [Clavulanic acid] + Cc1onc(-c2ccccc2)c1C(=O)N[C@@H]1C(=O)N2[C@@H]1SC(C)(C)[C@@H]2C(=O)O [Oxacillin]
Details	fitness
B. subtilis 168, first compound 1.5 µg/mL, partner 0.002 µg/mL	0.917
B. subtilis 168, first compound 1.5 µg/mL, partner 0.004 µg/mL	0.956
B. subtilis 168, first compound 1.5 µg/mL, partner 0.008 µg/mL	0.962
B. subtilis 168, first compound 3 µg/mL, partner 0.002 µg/mL	0.901
B. subtilis 168, first compound 3 µg/mL, partner 0.004 µg/mL	0.899
B. subtilis 168, first compound 3 µg/mL, partner 0.008 µg/mL	0.866
B. subtilis 168, first compound 6 µg/mL, partner 0.002 µg/mL	0.827
B. subtilis 168, first compound 6 µg/mL, partner 0.004 µg/mL	0.788
B. subtilis 168, first compound 6 µg/mL, partner 0.008 µg/mL	0.762
S. aureus Newman, first compound 0.03125 µg/mL, partner 0.0156 µg/mL	0.861
S. aureus Newman, first compound 0.03125 µg/mL, partner 0.0312 µg/mL	0.801
S. aureus Newman, first compound 0.03125 µg/mL, partner 0.0625 µg/mL	0.628
S. aureus Newman, first compound 0.0625 µg/mL, partner 0.0156 µg/mL	0.785
S. aureus Newman, first compound 0.0625 µg/mL, partner 0.0312 µg/mL	0.784
S. aureus Newman, first compound 0.0625 µg/mL, partner 0.0625 µg/mL	0.564
S. aureus Newman, first compound 0.125 µg/mL, partner 0.0156 µg/mL	0.749
S. aureus Newman, first compound 0.125 µg/mL, partner 0.0312 µg/mL	0.697
S. aureus Newman, first compound 0.125 µg/mL, partner 0.0625 µg/mL	0.584
S. pneumoniae D39V, first compound 0.5 µg/mL, partner 0.005 µg/mL	0.994
S. pneumoniae D39V, first compound 0.5 µg/mL, partner 0.01 µg/mL	0.953
S. pneumoniae D39V, first compound 0.5 µg/mL, partner 0.02 µg/mL	0.943
S. pneumoniae D39V, first compound 0.5 µg/mL, partner 0.04 µg/mL	0.401
S. pneumoniae D39V, first compound 1 µg/mL, partner 0.005 µg/mL	0.952
S. pneumoniae D39V, first compound 1 µg/mL, partner 0.01 µg/mL	0.888
S. pneumoniae D39V, first compound 1 µg/mL, partner 0.02 µg/mL	0.837
S. pneumoniae D39V, first compound 1 µg/mL, partner 0.04 µg/mL	0.228
S. pneumoniae D39V, first compound 2 µg/mL, partner 0.005 µg/mL	0.846
S. pneumoniae D39V, first compound 2 µg/mL, partner 0.01 µg/mL	0.749
S. pneumoniae D39V, first compound 2 µg/mL, partner 0.04 µg/mL	0.0623

fitness, B. subtilis 168, one replicate
Details	partner 0.0078 µg/mL	partner 0.0155 µg/mL	partner 0.031 µg/mL	partner 0.075 µg/mL	partner 0.15 µg/mL	partner 0.3 µg/mL
first compound 1.5 µg/mL	0.929	0.903	0.926	0.188	0.058	0.0448
first compound 3 µg/mL	0.958	0.937	0.973	0.0579	0.0634	0.0505
first compound 6 µg/mL	0.89	0.861	0.806	0.061	0.058	0.0518
